{
  "source": "patent US8957094B2",
  "about": "“Therapeutic agent or prophylactic agent for fibromyalgia” (Toray Industries, Inc., priority 2010, dated 2015)",
  "key": {"fibromyalgia": {"system": "fibromyalgia", "conditions": "reported, Abeles et al., Am J. Med., 2008; cited from earlier work"}, "[1]": {"system": "mouse partial sciatic nerve ligation model", "test": "Mouse partial sciatic nerve ligation model (Seltzer model), von Frey test (neuropathic pain)", "type": "in vivo", "parameters": "von Frey Total Score of 1 Hour after Oral Administration (Mean ± S.E.), Test Compound-Administered Group: scale not given here", "conditions": "for von Frey Total Score of 1 Hour after Oral Administration (Mean ± S.E.), Test Compound-Administered Group: n = 5-6, 7 days after ligation; for Score Improvement %: 1 hour after administration, relative to vehicle and sham surgery groups", "description": "Mouse models of partial sciatic nerve ligation were prepared according to Seltzer's method (Malmberg et al., Pain, 1998, vol. 76, p. 215-222). Male ICR mice of 5 weeks old were anesthetized with Sodium pentobarbital (70 mg/kg, i.p.), and thereafter, the sciatic nerve at the femoral region of the right hindlimb of each mouse was exposed, and the sciatic nerve was triply ligated tightly with silk suture of 8-0 (NATSUME SEISAKUSHO) under microscope so that only half thickness of the nerve was trapped in the ligature, which mice were used as a ligation group. The mice whose sciatic nerves were exposed but not ligated were used as a sham surgery group.\nEvaluation of neuropathic pain (hereinafter “von Frey test”) was carried out as follows. Mice were conditioned for at least 1 hour in an acryl cage for measurement (NATSUME SEISAKUSHO) placed on a wire net. Thereafter, using a filament (North Coast Medical, Inc. CA, USA) which exerted a pressure of 0.16 g, the mice were subjected to mechanical tactile stimulus by applying the filament to the plantar surface of both hindpaws 3 times, each for 3 seconds, with an interval of 3 seconds.\nSeven days after the sciatic nerve ligation, test compounds were orally administered to the mice. Prior to the oral administration of the test compounds, the von Frey test was carried out to split the animals of the ligation group into vehicle groups and test compound-administered groups so that the sums of the total scores of the groups were equalized. The mice of the sham surgery groups, the vehicle groups and the test compound-administered groups were subjected to the von Frey test 1 hour, 2 hours and 3 hours after oral administration of a vehicle or a test compound, and the obtained scores were used as an indicator of analgesic effect. As a vehicle of test compound solution or suspension, DMSO:Tween80:distilled water (1:1:8), 27% HP-β-CD or 0.5% MC was used.\nFor evaluation of drug efficacy, data were statistically processed by unpaired multigroup t test (adjusted by Dunnett), taking the vehicle group of each measurement time as a control."}, "rat fibromyalgia model": {"system": "rat fibromyalgia model", "test": "Effects on rat fibromyalgia model (acidic saline injection; allodynia by von Frey filaments)", "type": "in vivo", "conditions": "compared with the vehicle group, Day 7, 1-3 h after dosing, p<0.05, FIG. 1", "description": "In the experiments, 5 to 6 male SD rats of 6 to 7 weeks old were used for one experimental group. One hundred microliters of acidic physiological saline with pH of 4.0 was injected twice (taking the day when administration of acidic physiological saline started as Day 1, the administration was carried out once on Day 1 and once on Day 6) to gastrocnemius muscle of right hindlimb of each anesthetized rat to prepare a rat fibromyalgia model (Sluka et al., J. Pharmacol. Exp. Ther., 2002, vol. 302, p. 1146; Nagakura et al., Pain, 2009, vol. 146, p. 26; Sluka et al., Pain, 2009, vol. 146, p. 3), which was considered to reflect clinical symptoms of fibromyalgia based on their pharmacological characteristics and thus widely used in basic studies of fibromyalgia. In the same manner, physiological saline was administered to the control group.\nFor measurement of allodynia observed in a rat fibromyalgia model, a 50% withdrawal threshold (g) was determined using von Frey filaments in accordance with the method described in Chaplan et al., J. Neurosci. Methods, 1994, vol. 53, p. 55. On Day 7, allodynia was measured before oral administration of the test compound as Pre, and 1-, 2- and 3-hour after oral administration of the test compound. Rats which developed allodynia by receiving intramuscular injection of acidic physiological saline were used as a rat fibromyalgia model to evaluate the analgesic effect of the test compound. The term “rats which developed allodynia” herein means the rats showing a 50% withdrawal threshold (g) (the mean value of right and left hind paws) of 6 g or less. Pregabalin was used as a positive control.\nCompound 3, which is included in Compound (I), was suspended in 0.5% methylcellulose solution (hereinafter “0.5% MC”) to a concentration of 5 mg/mL or 10 mg/mL, and orally administered at an administration volume of 1 mL per 1 kg body weight. Pregabalin was suspended in 0.5% MC to a concentration of 10 mg/mL, and orally administered at an administration volume of 1 mL per 1 kg body weight. The vehicle group received oral administration of 0.5% MC. […]"}},
  "data": [
    {"compound": "COc1ccc2cc([C@H](C)C(=O)O)ccc2c1", "note": "[naproxen]", "values": [
      {"measurement": "analgesic effect in treating fibromyalgia", "setting": "fibromyalgia", "result": "any statistically significant analgesic effect is not observed"}
    ]},
    {"compound": "CC(C)Cc1ccc(C(C)C(=O)O)cc1", "note": "(stereo not shown) [ibuprofen]", "values": [
      {"measurement": "analgesic effect in treating fibromyalgia", "setting": "fibromyalgia", "result": "any statistically significant analgesic effect is not observed"}
    ]},
    {"compound": "COc1ccc(-n2nc(C3(O)CCC(O)(C(F)(F)F)CC3)cc2-c2ccc(C)cc2)cc1", "note": "(stereo not drawn) [Compound 10, 1-(1-(4-methoxyphenyl)-5-(p-tolyl)-1H-pyrazol-3-yl)-4-(trifluoromethyl)cyclohexan-cis-1,4-diol]", "values": [
      {"measurement": "von Frey Total Score of 1 Hour after Oral Administration (Mean ± S.E.), Test Compound-Administered Group", "setting": "[1]; dose 1 mg/kg oral", "result": "1.5 ± 0.5"}
    ]},
    {"compound": "COc1ccc(-c2nc(C3(O)CCC(O)CC3)oc2-c2ccc(OC)cc2)cc1", "note": "(stereo not drawn) [Compound 43, 4-(4,5-bis(4-methoxyphenyl)oxazol-2-yl)cyclohexan-cis-1,4-diol]", "values": [
      {"measurement": "von Frey Total Score of 1 Hour after Oral Administration (Mean ± S.E.), Test Compound-Administered Group", "setting": "[1]; dose 10 mg/kg oral", "result": "0.8 ± 0.7"}
    ]},
    {"compound": "COc1ccc(-n2nc(C3(O)CCC(O)CC3)cc2-c2ccc(C)cc2)cc1", "note": "(single isomer, unassigned) [Compound 2, 1-(1-(4-methoxyphenyl)-5-(p-tolyl)-1H-pyrazol-3-yl)cyclohexan-trans-1,4-diol]", "values": [
      {"measurement": "Score Improvement %", "setting": "[1]; dose 0.3 mg/kg oral, 0.3 mg/kg", "result": 104, "unit": "%"},
      {"measurement": "von Frey Total Score of 1 Hour after Oral Administration (Mean ± S.E.), Test Compound-Administered Group", "setting": "[1]; dose 0.3 mg/kg oral, 0.3 mg/kg", "result": "0.8 ± 0.5"}
    ]},
    {"compound": "COc1ccc(-n2nc(C3(O)CCC(O)CC3)cc2-c2ccc(C)cc2)cc1", "note": "(single isomer, unassigned) [Compound 3, 1-(1-(4-methoxyphenyl)-5-(p-tolyl)-1H-pyrazol-3-yl)cyclohexan-cis-1,4-diol]", "values": [
      {"measurement": "allodynia observed in the rat fibromyalgia model (50% withdrawal threshold)", "setting": "rat fibromyalgia model; oral administration 5 mg/kg", "result": "significantly improved allodynia"},
      {"measurement": "allodynia observed in the rat fibromyalgia model (50% withdrawal threshold)", "setting": "rat fibromyalgia model; oral administration 10 mg/kg", "result": "significantly improved allodynia"},
      {"measurement": "Score Improvement %", "setting": "[1]; dose 0.3 mg/kg oral, 0.3 mg/kg", "result": 83, "unit": "%"},
      {"measurement": "von Frey Total Score of 1 Hour after Oral Administration (Mean ± S.E.), Test Compound-Administered Group", "setting": "[1]; dose 0.3 mg/kg oral, 0.3 mg/kg", "result": "1.2 ± 0.8"}
    ]},
    {"compound": "COc1ccc(-n2nc(C3(O)CCC(C(=O)O)CC3)cc2-c2ccc(C)cc2)cc1", "note": "(stereo not drawn) [Compound 16, 4-hydroxy-4-(1-(4-methoxyphenyl)-5-(p-tolyl)-1H-pyrazol-3-yl)-cis-cyclohexanecarboxylic acid]", "values": [
      {"measurement": "von Frey Total Score of 1 Hour after Oral Administration (Mean ± S.E.), Test Compound-Administered Group", "setting": "[1]; dose 1 mg/kg oral", "result": "2.3 ± 0.5"}
    ]},
    {"compound": "COc1ccc(-n2nc(C3(O)CCC(O)CC3)c(Cl)c2-c2ccc(C)cc2)cc1", "note": "(stereo not drawn) [Compound 9, 1-(4-chloro-1-(4-methoxyphenyl)-5-(p-tolyl)-1H-pyrazol-3-yl)cyclohexan-cis-1,4-diol]", "values": [
      {"measurement": "von Frey Total Score of 1 Hour after Oral Administration (Mean ± S.E.), Test Compound-Administered Group", "setting": "[1]; dose 10 mg/kg oral", "result": "1.7 ± 0.6"}
    ]},
    {"compound": "COc1ccc(-n2nc(C3(O)CCC(O)CC3)cc2-c2ccc(C)c(F)c2)cc1", "note": "(stereo not shown) [Compound 55]", "values": [
      {"measurement": "von Frey Total Score of 1 Hour after Oral Administration (Mean ± S.E.), Test Compound-Administered Group", "setting": "[1]; dose 3 mg/kg oral", "result": "0.7 ± 0.5"}
    ]},
    {"compound": "COc1ccc(-c2cc(C3(O)CCC(O)CC3)nn2-c2ccc(OC)cc2)cc1", "note": "(stereo not drawn) [Compound 8, 1-(1,5-bis(4-methoxyphenyl)-1H-pyrazol-3-yl)cyclohexan-cis-1,4-diol]", "values": [
      {"measurement": "von Frey Total Score of 1 Hour after Oral Administration (Mean ± S.E.), Test Compound-Administered Group", "setting": "[1]; dose 10 mg/kg oral", "result": "2.2 ± 0.5"}
    ]},
    {"compound": "COc1ccc(-n2nc(C3(O)CCC(O)CC3)cc2-c2ccc(C)cc2)cc1F", "note": "(stereo not shown) [Compound 54]", "values": [
      {"measurement": "von Frey Total Score of 1 Hour after Oral Administration (Mean ± S.E.), Test Compound-Administered Group", "setting": "[1]; dose 10 mg/kg oral", "result": "1.2 ± 0.6"}
    ]},
    {"compound": "CC(C)C[C@H](CN)CC(=O)O", "note": "[pregabalin, reference compound]", "values": [
      {"measurement": "allodynia observed in the rat fibromyalgia model (50% withdrawal threshold)", "setting": "rat fibromyalgia model; oral administration 10 mg/kg", "result": "significantly improved allodynia"}
    ]}
  ]
}
